Results reported in patent US20140221301A1, “COMBINATION TREATMENT FOR CANCER” (priority 2011, published 2014).

Experiments:
M9-ENL1 cells = assay: Chemical screen, MTS assay, M9-ENL1 cells; type: cell-based, human; details: 10 μM, 48 hours
Source text: (§1) To identify compounds active against leukemia stem cells, a library of drugs (n=312) with well-characterized pharmacokinetics and toxicology and a wide therapeutic window was compiled. This library was then screened to identify agents that reduced the viability of TEX and M9-ENL1 cells. TEX and M9-ENL1 cells were derived from lineage-depleted human cord blood cells (Lin-CB) transduced with TLS-ERG or MLL-ENL oncogenes, respectively, and, as shown previously, display properties of stem cells including hierarchal differentiation and marrow repopulation^14, 15. In this screen, TEX and M9-ENL1 cells were treated with aliquots of the compounds. After incubation, cell growth and viability was measured by the MTS assay. From this screen, tigecycline was identified.
(§2) TEX, and M9-ENL-1 cells were seeded into 96-well polystyrene tissue culture plates (Corning). […] 72 (TEX) and 48 (M9-ENL-1) hours after incubation, cell growth and viability was measured by MTS assay. […]
(§3) Cell growth and viability was assessed by the MTS assay (Promega, Madison, Wis.) according to the manufacturer's instructions. Apoptosis and cell death was measured by Annexin V-fluroscein isothiocyanate (FITC; Biovision Research Products, Mountain View, Calif.), propidium iodide staining and flow cytometry according to the manufacturer's instructions and as previously described^30. […]

solid tumour cell lines = assay: Cell growth and viability, MTS assay, solid tumour cell lines; type: cell-based; details: 72 hours
Method: FIG. 1. […] (A) TEX and (B) M9-ENL1 cells were plated in 96-well plates and drugs were added to the wells (5 μL per well) for final concentrations of 10 μM (shown) and 1 μM. Cell growth and viability was measured at 48 hours (M9-ENL-1) and 72 hours (TEX) by MTS assay. Cell viability is shown for each compound as a percent of cells treated with DMSO alone. (C) Leukemia, (D) myeloma, and (E) solid tumor cell lines were seeded in 96-well plates and then treated with increasing concentrations of tigecycline. Cell growth and viability was measured at 72 hours by MTS assay. Cell viability is expressed as mean percentage plus or minus SD (n=3) relative to vehicle-treated cells. […] Cell viability was measured at 72 hours by MTS assay. Cell viability is expressed as mean percentage plus or minus SD (n=3) relative to vehicle-treated cells.
Human leukemia (OCI-AML2, HL60, U937) cell lines were maintained in RPMI 1640 medium. Myeloma (LP-1, KMS11, 8226, JJN3, OP-M2) cell lines were maintained in Iscove's media. […]
Cell growth and viability was assessed by the MTS assay (Promega, Madison, Wis.) according to the manufacturer's instructions. Apoptosis and cell death was measured by Annexin V-fluroscein isothiocyanate (FITC; Biovision Research Products, Mountain View, Calif.), propidium iodide staining and flow cytometry according to the manufacturer's instructions and as previously described^30.

XIAP, grp78 = assay: Immunoblotting of cytosolic-ribosome translated proteins; type: cell-based, human; details: TEX, OCI-AML2, primary AML cells
Method: FIG. 4. […] (A) Cells from TEX, OCI-AML2 and two primary AML patients were treated with increasing concentrations (2.5 μM and 5 μM) of tigecycline for 36 and 48 hours of tigecycline. Total proteins were extracted and analyzed by western blotting for Cox-1, Cox-2, Cox-4, grp78, XIAP, actin and tubulin. (B) TEX and AML patient cells were treated with increasing concentrations (2.5 μM and 5 μM) of tigecycline. Cox-1, Cox-2, and Cox-4 mRNA expression relative 18S was determined by quantitative RT-PCR. Data is shown as mean±SD. (C) TEX cells were treated with increasing concentrations of tigecycline and chloramphenicol (CAP) for 72 hours. Complex I, II and IV enzyme activity relative to citrate synthase activity was determined as described in materials and methods. (D) Cells from TEX, primary AML patients, and normal donors were treated with increasing concentrations of tigecycline. Mitochondrial membrane potential (ΔΨ) was determined by staining cells with JC-1 dye, and flow cytometry analysis (Red/Green ratio). Reactive oxygen species generation (ROS) was determined by staining with h2-DCFDA and Dihydroethidium (DHE).
Total cell lysates were prepared from cells as described previously^32. […] Protein concentrations were measured by the DC Protein assay. […]

[1] = test system: bacterial protein synthesis; details: cited from earlier work
TEX cells = assay: Chemical screen, MTS assay, TEX cells; type: cell-based, human; details: 10 μM, 72 hours
Source text: as §1, §2, §3

[2] = PK study in mice, single dose i.p.; details: mouse, in vivo, ip, single dose 50 mg/kg i.p.

Q: What does the source list for `CN(C)c1cc(NC(=O)CNC(C)(C)C)c(O)c2c1C[C@H]1C[C@H]3[C@H](N(C)C)C(O)=C(C(N)=O)C(=O)[C@@]3(O)C(O)=C1C2=O` [tigecycline]?
A: cell growth and viability in screen (M9-ENL1 cells): cell growth inhibitor; IC50 (solid tumour cell lines): > 10 µM; expression of XIAP or grp78 (XIAP, grp78): did not alter; inhibition of bacterial protein synthesis, fold greater than minocycline ([1]; relative to minocycline): 3 fold; inhibition of bacterial protein synthesis, fold greater than tetracycline ([1]; relative to tetracycline): 20 fold; cell growth and viability in screen (TEX cells): cell growth inhibitor; Tmax [2]: ~0.5 h; half-life [2]: ~4.5 h
